Article PMC8006935, “Study of Combinatorial Drug Synergy of Novel Acridone Derivatives With Temozolomide Using in-silico and in-vitro Methods in the Treatment of Drug-Resistant Glioma” (Frontiers in Oncology, 2021)
Like-named read-outs stand apart in the source and are kept apart here.

Experiments:
[1] = pKa by UV-Vis spectrophotometer; type: physicochemical
Protocol: Characterization of acridone derivatives AC2, AC7, and AC26 were carried out by using all the chemicals of analytical grade. Hydrochloric acid and sodium hydroxide were procured from Sisco Research Lab Pvt. Ltd (Mumbai, India). Potassium dihydrogen orthophosphate, methanol and ortho-phosphoric acid (85% pure) was received from Loba Chemie Pvt. Ltd. (Mumbai, India). Sodium chloride was received from SD Fine-Chem Limited (Mumbai, India). Milli-pore water was used throughout the study. Chemical information like the molecular weight of compounds was determined by obtaining ESI-MS spectroscopy using methanol as solvent. pH calculated by using pH analyzer (Lab India) and PKa determined by using UV-Vis spectrophotometer (Shimadzu, Japan). Melting point was calculated by Digital Melting point apparatus (Veego India). Lipophilicity was determined by using software like Chem Draw 15 and ALGOPS 2.1 ([16]). In order to determine the Blood Brain Barrier (BBB) permeability of the compounds, we have used Online BBB Predictor (https://www.cbligand.org/BBB/predictor.php) using SVM Machine Learning algorithm and PubChem as the fingerprint ([17]).

[2] = Sulforhodamine B assay, Vero control cells; type: cell-based; details: African green monkey, Vero cells (normal kidney epithelial cells), SRB, read-out: Vero cell Line CC50
Protocol: (§1) In order to test the growth inhibition potential of the TMZ and Acridone derivatives on Glioma, the U-87 (Uppsala 87) Glioma cell lines and T-98 (Temozolomide resistant) Glioma cell lines were treated with Temozolomide (TMZ) and Acridone derivatives AC2, AC7, and AC26. The African Green Monkey Kidney Vero cell lines were used as control for the study. The Vero cell lines were obtained from the National Center for Cell Sciences (NCCS), Pune, while the U-87 and T-98 cell lines were carried in the lab of Dr. GJ Peters, Cancer Center Amsterdam (CCA), VU University Medical Center, Amsterdam, Netherlands. The Mycoplasma testing was done by using the Universal Mycoplasma Detection Kit (ATCC® 30-1012K™) every 6 months. The Vero cell lines have been used as control as they are normal kidney epithelial cells and are non-cancerous in nature. The Vero cell lines have been routinely used for testing cytotoxicity of small molecules by various researchers ([22], [23]). Also, in our previous study, Vero cell lines have been used for testing safety and efficacy of Acridone derivatives for Lung, Cervical, and Breast Cancer studies ([13]).
(§2) Cell viability was found using the Sulforhodamine B (SRB) assay to measure the cellular protein content which provides better sensitivity in comparison to MTT assay ([24]). Moreover, as this method is dependent on the property of the SRB dye, it acts by binding to proteins under slightly acidic conditions and can be exposed to basic conditions for its extraction. The resulting amount of bound dye is then utilized as a proxy for cell mass ([25]). This cell mass can then be extrapolated to measure cell growth.
Glioma cells were cultured in Gibco (RPMI 1640) complemented with 10% fetal calf serum (Gibco). The cultures were then treated with trypsin-EDTA in order to detach/separate the cells from their culture flasks. The quickly proliferating cells were harvested, counted and plated at suitable concentrations in 96-well microplates. These microplates were subsequently incubated for 24 h. After incubation, drug compounds were dissolved in the culture media and placed in 96 well plates in triplicates, which were again incubated at 37°C under 5% CO2 for 72 h. 72 h later, the plates were removed and the cells were treated with cold Trichloroacetic acid (TCA) to fix the cultures and. […] Thereafter, absorbance of the solution was measured at 540 nm utilizing a microplate reader. Absorbance readings (triplicate values) recorded were used to calculate percentage growth inhibition due to the effect of drugs using the following equations.
% Cell growth = Absorbance sample/Absorbance of control or untreated × 100 […]
The IC50 was calculated based on the log graph sheet which was developed in-house at the CCA, VU University Medical Center. […]

[3] = tested on: U-87 (Uppsala 87) Glioma cell lines; experiment: Sulforhodamine B assay, U-87 drug sensitive Glioma cells; type: cell-based
Protocol: as §1, §2
(§3) Glioma cells were cultured in Gibco (RPMI 1640) complemented with 10% fetal calf serum (Gibco). The cultures were then treated with trypsin-EDTA in order to detach/separate the cells from their culture flasks. The quickly proliferating cells were harvested, counted and plated at suitable concentrations in 96-well microplates. These microplates were subsequently incubated for 24 h. After incubation, drug compounds were dissolved in the culture media and placed in 96 well plates in triplicates, which were again incubated at 37°C under 5% CO2 for 72 h. 72 h later, the plates were removed and the cells were treated with cold Trichloroacetic acid (TCA) to fix the cultures and. 0.4% of SRB dissolved in 1% acetic acid was then added to the culture in order to stain the cells. Next, the bound stain was dissolved in 150 μl of 10 mM unbuffered Tris base left on a gyrator shaker. Thereafter, absorbance of the solution was measured at 540 nm utilizing a microplate reader. Absorbance readings (triplicate values) recorded were used to calculate percentage growth inhibition due to the effect of drugs using the following equations.
(§4) % Cell growth = Absorbance sample/Absorbance of control or untreated × 100
(§5) % Growth inhibition = 100 - % cell growth
(§6) The IC50 was calculated based on the log graph sheet which was developed in-house at the CCA, VU University Medical Center.
(§7) Selectivity Index (SI) is a ratio that measures the window between cytotoxicity and anticancer activity of the drugs ([26]). […] Here, IC50 is the inhibition concentration for inhibiting 50% of cancer cells and CC50 is cytotoxic concentration causing death of 50% viable cells in the host.

[4] = tested on: T-98 (Temozolomide resistant) Glioma cell lines; experiment: Sulforhodamine B assay, T-98 TMZ resistant Glioma cells; type: cell-based; details: for IC50: Glioma cell
Protocol: as §1, §2, §3, §4, §5, §6, §7

[5] = Acute Oral Toxicity - Fixed Dose procedure; type: in vivo
Protocol: Animal study was conducted for acridone derivatives AC2, AC7, and AC26 alone and in combination with Temozolomide for Acute Oral Toxicity - Fixed Dose procedure. The Institutional Animal Ethics Committee bearing CPCSEA/IAEC/P-52/2016 was approved for undertaking the study. Acute oral toxicity was conducted on female albino Wistar rats for 8–12 weeks and were maintained at 25 ± 2 °C in a conditioned room with 50–60% of humidity and free access to food and water was given. Rats were kept for fasting overnight (12 h) before dosing and weights were recorded periodically. Rats in two groups were given acridone derivatives alone at a dose of […], rats in two groups were given a combination of Temozolomide : acridone derivatives at dose of 10:1 mg/kg and 15:1.5 mg/kg body weight and one group was kept as control. Dose of Temozolomide was taken as per previously published article ([50]). Compounds alone and combination were suspended in 2.0% of Tween 80 in normal saline and control group was taken for vehicle only. After administering the compound, food was not provided for 3 h. All the rats were monitored periodically for 1 h upto 12 h on the 1st day and thereafter twice in a day for mortality, behavioral changes, signs and symptoms of toxicity for 14 days. Individual weights of rats were taken for all the 14 days and study was conducted twice for each dose.

[6] = SI = CC50 of Vero cell line /IC50 of Cancer cell line after 72 h

Question: With `O=C(NN=CC=Cc1ccccc1)c1cccc2c(=O)c3ccccc3[nH]c12` [AC2, 9-oxo-N'-(3-phenylallylidene)-9,10-dihydroacridine-4-carbohydrazide] as the compound, how does the pKa [1] read?
Answer: 8.03

Question: What about the CC50 at 72 h [2] of the same compound?
Answer: 56200 nM

Question: What about the “U-87/WT SI” value [3, 6] of the same compound?
Answer: 36.73

Question: What about the IC50 ([3]; U87WT, 72 h, SRB, Mean ± Standard Deviations in Table 4, read-out: U-87/WT IC50) of the same compound?
Answer: 1530 ± 850 nM

Question: And the IC50 ([4]; 72 h, SRB, Mean ± Standard Deviations in Table 4, read-out: T-98/TMZRES IC50)?
Answer: 1530 ± 250 nM

Question: And the IC50 ([4]; drug administered individually, drug resistant cells, read-out: Initial IC50)?
Answer: 1530 nM

Question: What about the “T-98/TMZRES SI” value [4, 6] of the same compound?
Answer: 36.73

Question: What about the “Body weight (g) Day 0” value ([5]; 300 mg/kg oral) of the same compound?
Answer: 185 ± 6 g

Question: And the “Body weight (g) Day 1” value ([5]; 300 mg/kg oral)?
Answer: 186 ± 12 g

Question: And the “Body weight (g) Day 2” value ([5]; 300 mg/kg oral)?
Answer: 189 ± 10 g

Question: And the “Body weight (g) Day 3” value ([5]; 300 mg/kg oral)?
Answer: 191 ± 15 g

Question: And the “Body weight (g) Day 4” value ([5]; 300 mg/kg oral)?
Answer: 192 ± 12 g

Question: What about the “Body weight (g) Day 5” value ([5]; 300 mg/kg oral) of the same compound?
Answer: 193 ± 22 g

Question: And the “Body weight (g) Day 6” value ([5]; 300 mg/kg oral)?
Answer: 195 ± 12 g

Question: What about the “Body weight (g) Day 7” value ([5]; 300 mg/kg oral) of the same compound?
Answer: 196 ± 10 g

Question: What about the “Body weight (g) Day 8” value ([5]; 300 mg/kg oral) of the same compound?
Answer: 194 ± 12 g

Question: And the “Body weight (g) Day 9” value ([5]; 300 mg/kg oral)?
Answer: 195 ± 10 g

Question: What about the “Body weight (g) Day 10” value ([5]; 300 mg/kg oral) of the same compound?
Answer: 198 ± 15 g

Question: What about the “Body weight (g) Day 11” value ([5]; 300 mg/kg oral) of the same compound?
Answer: 199 ± 16 g

Question: And the “Body weight (g) Day 12” value ([5]; 300 mg/kg oral)?
Answer: 201 ± 10 g

Question: And the “Body weight (g) Day 13” value ([5]; 300 mg/kg oral)?
Answer: 203 ± 6 g

Question: What about the “Body weight (g) Day 14” value ([5]; 300 mg/kg oral) of the same compound?
Answer: 205 ± 18 g

Question: And the “Body weight (g) Day 0” value ([5]; 2000 mg/kg oral)?
Answer: 173 ± 8 g

Question: What about the “Body weight (g) Day 1” value ([5]; 2000 mg/kg oral) of the same compound?
Answer: 175 ± 11 g

Question: And the “Body weight (g) Day 2” value ([5]; 2000 mg/kg oral)?
Answer: 176 ± 8 g

Question: And the “Body weight (g) Day 3” value ([5]; 2000 mg/kg oral)?
Answer: 178 ± 12 g

Question: What about the “Body weight (g) Day 4” value ([5]; 2000 mg/kg oral) of the same compound?
Answer: 180 ± 14 g

Question: And the “Body weight (g) Day 5” value ([5]; 2000 mg/kg oral)?
Answer: 183 ± 15 g

Question: What about the “Body weight (g) Day 6” value ([5]; 2000 mg/kg oral) of the same compound?
Answer: 185 ± 12 g

Question: What about the “Body weight (g) Day 7” value ([5]; 2000 mg/kg oral) of the same compound?
Answer: 188 ± 16 g

Question: What about the “Body weight (g) Day 8” value ([5]; 2000 mg/kg oral) of the same compound?
Answer: 190 ± 12 g

Question: What about the “Body weight (g) Day 9” value ([5]; 2000 mg/kg oral) of the same compound?
Answer: 192 ± 16 g

Question: And the “Body weight (g) Day 10” value ([5]; 2000 mg/kg oral)?
Answer: 195 ± 12 g

Question: And the “Body weight (g) Day 11” value ([5]; 2000 mg/kg oral)?
Answer: 197 ± 8 g

Question: And the “Body weight (g) Day 12” value ([5]; 2000 mg/kg oral)?
Answer: 199 ± 12 g

Question: And the “Body weight (g) Day 13” value ([5]; 2000 mg/kg oral)?
Answer: 202 ± 15 g

Question: And the “Body weight (g) Day 14” value ([5]; 2000 mg/kg oral)?
Answer: 206 ± 7 g

Question: What about the “clinical sign of toxicity” value ([5]; oral, single dose, 14 days observation, female albino Wistar rats) of the same compound?
Answer: No clinical sign of toxicity was observed
